According to article PMC9081329, “Pharmacokinetics, Mass Balance, Excretion, and Tissue Distribution of Plasmalogen Precursor PPI-1011” (Frontiers in Cell and Developmental Biology, 2022):

Test: Plasma pharmacokinetics of total radioactivity after a single oral dose of [^14C]PPI-1011 100 mg/kg
Type: in vivo, Sprague-Dawley rats
Details: single oral 100 mg/kg; for AUCInf / AUClast / Cmax / MRTInf / t1/2 / tmax / AUC Extr: plasma total radioactivity
Protocol: The pharmacokinetics of [^14C]PPI-1011 were performed in four rats that were surgically implanted with femoral artery catheters (FAC) for blood collection at least 2 days before dosing began. [^14C]PPI-1011 was administered as a single oral dose at 100 mg/kg (200 μCi/kg). Blood samples were collected in EDTA tubes and centrifuged to obtain plasma at 1, 3, 6, 12, 18, 24, 48, and 72 h after drug administration. Duplicate aliquots of plasma (∼25 μl or higher) were transferred to liquid scintillation vials and the weights of sample aliquots were recorded. Aliquots were mixed with Ultima Gold (5 ml) as scintillation fluid and total radioactivity was determined by liquid scintillation counting (LSC) and used to calculate the total radioactive concentration.
The PK calculations of total radioactivity in plasma were analyzed with non-compartmental analyses using Phoenix® WinNonlin® software (version 8.1). Statistical calculations for the other studies were limited to simple parameters such as means or averages, standard deviations (sd), and percentages (%). The amount of compound equivalents (Eq) in samples was calculated as concentrations expressed in μg Eq/g. Dose, MCID™ generated tissue concentrations, pharmacokinetic, and radioanalysis data were compiled using Microsoft Excel for Microsoft 365, Version 2010.

For `CC/C=C\C/C=C\C/C=C\C/C=C\C/C=C\C/C=C\CCC(=O)O[C@H](CO[14CH2]CCCCCCCCCCCCCCC)COC(=O)CCCCC1CCSS1` (stereo partly shown) [[^14C]PPI-1011], the “Mean total radioactivity in plasma” value (1 h) was “approximately 500 ng Eq/g”, the “Mean total radioactivity in plasma” value (6 h) was ~27,000 ng Eq/g and the “Mean total radioactivity in plasma” value (72 h) was ~4,000 ng Eq/g. For the same compound, the AUCInf (Mean of 4 rats) was 867,000 h*ng/ml, the AUClast (Mean of 4 rats) was 608,000 h*ng/ml and the Cmax (Mean of 4 rats) was 27,900 ng/ml. For the same compound, the MRTInf (Mean of 4 rats) was 55 h, the t1/2 (Mean of 4 rats) was 40 h and the tmax (Mean of 4 rats) was 7.5 h. The “AUC Extr” value (Rat 1) was 6.8%, the AUCInf (Rat 1) was 753,000 h*ng/ml and the AUClast (Rat 1) was 702,000 h*ng/ml. For the same compound, the Cmax (Rat 1) was 30,000 ng/ml, the MRTInf (Rat 1) was 27 h and the t1/2 (Rat 1) was 18 h. The tmax (Rat 1) was 6.0 h, the “AUC Extr” value (Rat 2) was 31% and the AUCInf (Rat 2) was 953,000 h*ng/ml. The AUClast (Rat 2) was 659,000 h*ng/ml, the Cmax (Rat 2) was 21,500 ng/ml and the MRTInf (Rat 2) was 61 h. For the same compound, the t1/2 (Rat 2) was 42 h, the tmax (Rat 2) was 6.0 h and the “AUC Extr” value (Rat 3) was 6.5%. For the same compound, the AUCInf (Rat 3) was 542,000 h*ng/ml, the AUClast (Rat 3) was 507,000 h*ng/ml and the Cmax (Rat 3) was 42,500 ng/ml. For the same compound, the MRTInf (Rat 3) was 23 h, the t1/2 (Rat 3) was 19 h and the tmax (Rat 3) was 6.0 h. For the same compound, the “AUC Extr” value (Rat 4) was 54%, the AUCInf (Rat 4) was 1,220,000 h*ng/ml and the AUClast (Rat 4) was 565,000 h*ng/ml. The Cmax (Rat 4) was 17,400 ng/ml, the MRTInf (Rat 4) was 110 h and the t1/2 (Rat 4) was 80 h. It also gave a tmax (Rat 4) of 12 h.
